{
  "source": "patent US8114862B2",
  "about": "“TGR5 modulators and methods of use thereof” (Intercept Pharmaceuticals, Inc., priority 2008, dated 2012)",
  "key": {"DIO and db/db mice": {"test_system": "DIO and db/db mice", "assay": "Glucose homeostasis and insulin sensitivity in DIO and db/db mice (Example 21)", "type": "in vivo, mouse", "experimental": "(§1) Animals were housed and bred according to standardized procedures (Argmann and Auwerx, 2006b). Age-matched male mice were used for all experiments. Genetically engineered mouse models (GEMMs), i.e., TGR5-Tg and TGR5^−/− mice, were generated as described in the Supplemental Data. […]; Research Diets) for at least 8 weeks, as mentioned in the text and figure legends. […] Mouse phenotyping experiments were performed according to EMPRESS protocols (see, for example, Empress (European Mouse Phenotyping Resource of Standardised Screening) website) and were aimed to assess food and water intake, body composition (Argmann et al., 2006a, Curr. Protoc. Mol. Biol. Chapter 29, Unit 29A, 23), energy expenditure (Argmann et al., 2006a, Curr. Protoc. Mol. Biol. Chapter 29, Unit 29A, 23), glucose and lipid homeostasis (Argmann et al., 2006b, Curr. Protoc. Mol. Biol. Chapter 29, Unit 29A, 22); Heikkinen et al., 2007, Curr. Protoc. Mol. Chapter. 29, Unit 29B, 23; Mataki et al., 2007, Mol. Cell. Biol. 27, 8330), and plasma biochemistry (Argmann and Auwerx, 2006a, Curr. Protoc. Mol. Biol. Chapter 29, Unit 29A, 22). Tissues and blood were collected and processed for histopathology, blood chemistry, and gene expression according to standardized procedures (Argmann and Auwerx, 2006a; Feige et al., 2008b; Mark et al., 2007; Watanabe et al., 2006). Hyperinsulinemic euglycemic clamp studies were performed as described (Feige et al., 2008b), with minor modifications including a change in the initial insulin bolus (30 mU/kg) and insulin infusion rate (10 mU/min/kg). Plasma GLP-1 levels were measured by ELISA (Millipore) on blood collected by retro-orbital puncture. […].\nTo further characterize the impact of compound Ih3e on glucose homeostasis and insulin sensitivity, a hyperinsulinemic euglycemic glucose clamp was performed on these DIO mice. […]. These effects correlated with normalization in the expression of key genes involved in hepatic glucose homeostasis (FIG. 21G)."}, "[1]": {"assay": "Octanol/water partition coefficient (shake-flask)", "type": "physicochemical", "conditions": "pH 8"}, "PPARδ": {"molecular_target": "T1, PPARδ (Homo sapiens, UniProt Q03181)", "T1 sequence (Q03181 211-439 limits assumed)": "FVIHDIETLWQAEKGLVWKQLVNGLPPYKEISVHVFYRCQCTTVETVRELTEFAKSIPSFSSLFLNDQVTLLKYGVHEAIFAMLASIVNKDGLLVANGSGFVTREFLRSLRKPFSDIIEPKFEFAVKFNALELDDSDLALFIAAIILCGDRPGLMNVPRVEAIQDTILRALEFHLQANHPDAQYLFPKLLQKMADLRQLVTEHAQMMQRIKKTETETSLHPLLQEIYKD", "assay": "PPARδ coactivator recruitment assay"}, "STC-1 cells": {"test_system": "STC-1 cells", "assay": "STC-1 cell experiments (Cox activity, oxygen consumption, ATP/ADP, GLP-1 release)", "type": "cell-based, mouse"}, "TGR5+/+ and TGR5-/- mice": {"test_system": "TGR5+/+ and TGR5-/- mice", "assay": "OGTT in HF-fed TGR5+/+ and TGR5-/- mice before and after treatment", "type": "in vivo, mouse", "conditions": "for body weight after treatment: HF diet, 30 mg/kg/d 4 weeks", "experimental": "[…]. […] […]; not statistically different). […]; not statistically different).\nas §1"}, "in vitro [2]": {"assay": "in vitro", "conditions": "human, HepG2 cells"}, "NCI-H716 cells": {"test_system": "NCI-H716 cells", "assay": "NCI-H716 cell experiments (ATP, intracellular calcium, GLP-1 release)", "type": "cell-based, human"}, "in vitro [3]": {"assay": "in vitro", "conditions": "human, s9"}},
  "note": "Values joined by “and” are separate entries in the source; they are usually repeats but may differ in a detail not shown here. Equal values may be shown once.",
  "data": [
    {"compound": "CC[C@H]1[C@@H](O)[C@@H]2[C@H](C[C@H](O)[C@]3(C)[C@@H]([C@H](C)C[C@H](C)C(=O)O)CC[C@@H]23)[C@@]2(C)CC[C@@H](O)C[C@@H]12", "note": "[Ih3e, 6α-ethyl-(23S)-methyl-3α,7α,12α trihydroxy-5β-cholan-24-oic acid]", "values": [
      {"measurement": "fasting glucose and insulin levels", "setting": "DIO and db/db mice; DIO and db/db mice", "result": "decreased"},
      {"measurement": "glucose-stimulated insulin secretion profile", "setting": "DIO and db/db mice; DIO and db/db mice", "result": "improvement"},
      {"measurement": "glucose tolerance after an oral challenge with glucose", "setting": "DIO and db/db mice; DIO and db/db mice, 30 mkd", "result": "robustly improved glucose tolerance"},
      {"measurement": "glucose infusion rate required to maintain euglycemia", "setting": "DIO and db/db mice; DIO mice, hyperinsulinemic euglycemic clamp", "result": "virtually identical to that observed in CD-fed control mice"},
      {"measurement": "body weight", "setting": "DIO and db/db mice; HF-fed C57BL6/J mice, 30 mg/kg/d for 8 weeks", "result": "32.26 ± 0.95", "unit": "g"},
      {"measurement": "hepatic glucose production, glucose disposal rate, suppression of glucose production by insulin", "setting": "DIO and db/db mice; HF-fed mice, clamp", "result": "normalized these parameters to the values observed in CD-fed mice"},
      {"measurement": "insulin-stimulated 14C-deoxyglucose uptake", "setting": "DIO and db/db mice; clamp", "result": "reduced insulin resistance in liver and muscle"},
      {"measurement": "expression of key genes involved in hepatic glucose homeostasis", "setting": "DIO and db/db mice; mouse, in vivo", "result": "normalization"},
      {"measurement": "LogPA- (1-octanol-water partition coefficient, ionized species)", "setting": "[1]", "result": "1.4 and 1.44"},
      {"measurement": "PPARδ Activation EC50", "setting": "PPARδ", "result": "No activity"},
      {"measurement": "Cox activity", "setting": "STC-1 cells", "result": "cAMP-dependent increase in Cox activity"},
      {"measurement": "cellular oxygen consumption", "setting": "STC-1 cells", "result": "increase in cellular oxygen consumption"},
      {"measurement": "impact on GLP-1 release", "setting": "STC-1 cells; prevented by RNA interference or MDL-12-330A", "result": "enhanced by TGR5 overexpression"},
      {"measurement": "insulin secretion during oral glucose challenge", "setting": "TGR5+/+ and TGR5-/- mice; TGR5+/+ fed a HF diet", "result": "normalization of insulin secretion"},
      {"measurement": "glucose tolerance", "setting": "TGR5+/+ and TGR5-/- mice; TGR5+/+ fed a HF diet, 4 weeks 30 mkd", "result": "significantly improved glucose tolerance"},
      {"measurement": "body weight after treatment", "setting": "TGR5+/+ and TGR5-/- mice; TGR5+/+ mice", "result": "43.50 ± 3.47", "unit": "g"},
      {"measurement": "effects on glucose tolerance and insulin secretion", "setting": "TGR5+/+ and TGR5-/- mice; TGR5-/- mice", "result": "blunted"},
      {"measurement": "body weight after treatment", "setting": "TGR5+/+ and TGR5-/- mice; TGR5-/- mice", "result": "52.30 ± 2.72", "unit": "g"},
      {"measurement": "EC50 at 4 h", "setting": "in vitro [2]", "result": "> 1000", "unit": "µM"},
      {"measurement": "ATP production", "setting": "NCI-H716 cells; NCI-H716", "result": "increased ATP production in a cAMP-dependent manner"},
      {"measurement": "calcium influx", "setting": "NCI-H716 cells; NCI-H716", "result": "robustly increased calcium influx"},
      {"measurement": "GLP-1 release", "setting": "NCI-H716 cells; NCI-H716, with glucose", "result": "rise in GLP-1 release"},
      {"measurement": "half-life", "setting": "in vitro [3]", "result": 12.1, "unit": "h"}
    ]}
  ]
}
